Values after ≈ are worked out from the molar mass of the structure shown.

Test [1] has as its system Trypanosoma brucei gambiense strain Feo bloodstream forms. Briefly: Antitrypanosomal assay (resazurin). In kind it is cell-based. To be noted: Trypanosoma brucei, GAMBIENSE; 72 h incubation; read-out: IC50 T. brucei gambiense. The method, then: page 10: independent experiments. Chloroquine diphosphate (Sigma–Aldrich) was used as antimalarial drug control. Antitrypanosomal activities: Bloodstream forms of Trypanosoma brucei gambiense strain Feo were cultured in HMI9 medium supplemented with 10% FCS at 37 °C under an atmosphere of 5% CO2. Antitrypanosomal assays were performed as previously described. In all experiments, log-phage cell cultures were harvested by centrifugation at 3,000g and immediately used. Drug assays were based on the conversion of a redox-sensitive dye (resazurin) to a fluorescent product by viable cells. Drug stock solutions were prepared in pure DMSO. […] After a 72 h incubation, resazurin solution was added in each well at the final concentration of 45 µM. Fluorescence was measured at 530 nm excitation and 590 nm emission wavelengths after a further 4 h incubation. Each inhibitor concentration was tested in triplicate. The percentage of inhibition of parasite growth rate was calculated by comparing the fluorescence of parasites maintained in the presence of drug to that in the absence of drug. DMSO was used as a control. IC50s were determined from the dose–response curves with drug concentrations ranging from 100 µM to 50 nM. Pentamidine was used as antitrypanosomal drug control. MIC determination: Indicator strains were obtained from the German Collection of Microorganisms and Cell Cultures (Deutsche Sammlung für Mikroorganismen und Zellkulturen, DSMZ) or were part of our internal strain collection. All microorganisms were handled under standard conditions recommended by the depositor. Overnight S10

Test [2] deals with Plasmodium falciparum FcB1 (chloroquine-resistant). Briefly: In vitro antiplasmodial assay ([3H]-hypoxanthine incorporation). In kind it is cell-based. To be noted: Plasmodium falciparum, FCB1; triplicate (except compound 24), mean ±SD; read-out: IC50 P. falciparum FcB1. As to the method: In vitro antiplasmodial assays: The chloroquine-resistant strain FcB1/Colombia of Plasmodium falciparum was maintained in vitro on human erythrocytes in RPMI 1640 medium supplemented by 8% (v/v) heat-inactivated human serum, at 37 °C, under an atmosphere of 3% CO2, 6% O2, and 91% N2. In vitro drug susceptibility assays was measured by [3H]-hypoxanthine incorporation as described. Drugs were prepared in DMSO at a 10 mg/mL concentration. Compounds were serially diluted two-fold with 100 µL culture medium in 96-well plates. Asynchronous parasite cultures (100 µL, 1% parasitaemia and 1% final hematocrite) were then added to each well and incubated for 24 h at 37 °C prior to the addition of 0.5 µCi of [3H]- hypoxanthine (GE Healthcare, France, 1 to 5 Ci·mmol/mL) per well. After a further incubation of 24 h, plates were frozen and thawed. Cell lysates were then collected onto glass-fiber filters and counted in a liquid scintillation spectrometer. The growth inhibition for each drug concentration was determined by comparison of the radioactivity incorporated in the treated culture with that in the control culture maintained on the same plate. The concentration causing 50% growth inhibition (IC50) was obtained from the drug concentration–response curve and the results were expressed as the mean values ± standard deviations determined from several […]
independent experiments. Chloroquine diphosphate (Sigma–Aldrich) was used as antimalarial drug control. […]

The test system of the next test is Plasmodium falciparum. Set-up: method as in PMID 18922036. To be noted: cited from earlier work.
The subject of another test is Plasmodium. Details: method as in PMID 15215101. To be noted: read-out: antiplasmodial IC50; cited from earlier work.
Test [3] deals with HCT-116 human colon carcinoma cells. Briefly: Cytotoxicity, growth inhibition (MTT). In kind it is cell-based. To be noted: Homo sapiens, HCT-116, 120 h, read-out: IC50: half inhibitory concentration, HCT-116. As to the method: (§1) The cytotoxic activity of aurachin D (4) and analogues 9–11 and 17–19 was evaluated in growth inhibition experiments on mammalian cell lines (Table 2). After 5 days treatment, half inhibitory concentrations (IC50) were determined for human HCT-116 colon carcinoma and human K562 myelogenous leukemia cells. […]
(§2) was further incubated for 1.5 h. The medium was then discarded and 100 µL 2-propanol/10 N HCl (250:1) was added in order to dissolve formazan granules. The absorbance at 570 nm was measured using a microplate reader (EL808, Bio-Tek Instruments Inc.) and cell viability was expressed as a percentage relative to the respective solvent control. […]

Test [4] deals with K562 myelogenous leukemia cells. Briefly: Cytotoxicity, growth inhibition (MTT). In kind it is cell-based. To be noted: Homo sapiens, K562, 120 h; 5 days treatment; triplicate, mean ±SD; read-out: IC50: half inhibitory concentration, K562. As to the method:
as §1, §2

The test system of test [5] is Staphylococcus aureus DSM11822 (MRSA). Briefly: MIC determination. In kind it is cell-based. To be noted: duplicate, mean ±SD. The method, then: (§3) MIC determination: Indicator strains were obtained from the German Collection of Microorganisms and Cell Cultures (Deutsche Sammlung für Mikroorganismen und Zellkulturen, DSMZ) or were part of our internal strain collection. All microorganisms were handled under standard conditions recommended by the depositor. Overnight […]
(§4) cultures of bacteria were prepared in EBS medium (0.5% casein peptone, 0.5% proteose peptone, 0.1% meat peptone, 0.1% yeast extract; pH 7.0). Yeasts and molds were grown in Myc medium (1% phytone peptone, 1% glucose, 50 mM
(§5) HEPES, pH 7.0). The overnight cultures of microorganisms were diluted to OD600 0.01 (bacteria) or 0.05 (yeasts/molds) in the respective growth medium. Serial dilutions of compounds were prepared as duplicates in sterile 96-well plates. The cell suspension was added and microorganisms were grown overnight on a microplate shaker (900 rpm, 30 °C or 37 °C). Growth inhibition was assessed by measuring the OD600 on a plate reader (POLARstar, BMG Labtech). MIC50 values were determined as averages relative to respective control samples by sigmoidal curve fitting. […]

The next test concerns Bacillus subtilis DSM10. Briefly: MIC determination. In kind it is cell-based. To be noted: Bacillus subtilis, DSM10; duplicate, mean ±SD. As to the method: as §3, §4, §5
The test system of test [6] is Staphylococcus aureus Newman (MSSA). Briefly: MIC determination. In kind it is cell-based. To be noted: duplicate, mean ±SD. As to the method: as §3, §4, §5
In a further test the test system is Micrococcus luteus. Briefly: MIC determination. To be noted: duplicate, mean ±SD. In kind it is cell-based. The method, then: as §3, §4, §5
Test [7] relates to Escherichia coli DH5α (wt). Briefly: MIC determination. In kind it is cell-based. To be noted: duplicate, mean ±SD. As to the method:
as §3, §4, §5

The test system of another test is Escherichia coli (TolC). Briefly: MIC determination. In kind it is cell-based. To be noted: read-out: MIC50 Escherichia coli (TolC). The method, then:
as §3, §4, §5

Test [8] deals with Klebsiella pneumoniae DSM30104. Briefly: MIC determination. To be noted: duplicate, mean ±SD. In kind it is cell-based. As to the method:
as §3, §4, §5

For test [9], the system named is Vero cells (nontumor cells). Briefly: Cytotoxicity on Vero cells (MTT). In kind it is cell-based. To be noted: 48 h incubation. The method, then: was further incubated for 1.5 h. The medium was then discarded and 100 µL 2-propanol/10 N HCl (250:1) was added in order to dissolve formazan granules. The absorbance at 570 nm was measured using a microplate reader (EL808, Bio-Tek Instruments Inc.) and cell viability was expressed as a percentage relative to the respective solvent control. VERO cells: VERO cells were seeded into 96-well microplates at 10^5 cells per mL in RPMI supplemented with 10% foetal calf serum.
After 24 h, the cells were washed and two microliters of two-fold serial dilutions of each compound (10 mg/mL) was added to 100 μL of medium. Cells were then incubated for 48 h at 37 ° C under a 5% CO2 atmosphere. At the end of incubation, 20 µL of MTT solution (5 mg/mL) was added to each well and further incubated for 4 h at 37 °C to allow the formation of formazan. The crystals of formazan were then dissolved with 100 µL of a freshly prepared solution of sodium dodecyl sulfate (SDS) 10% (15 mL) and HCl 1 N (150 µL). The optical density of each well was measured at 595 nm using a multiwell plate reader. The 50% inhibition concentration was then determined by curve fitting.
MMP assay: Human U-2 OS osteosarcoma cells (HTB-96) were obtained from the American Type Culture Collection (ATCC) and were cultured under the conditions recommended by the depositor. Cells from actively growing cultures were harvested and seeded at 8 × 10^3 cells per well in 96-well imaging plates (BD Falcon). After 1 d cells reached approximately 60% confluency and were treated with aurachin analogues at the assigned concentrations for 16 h. In addition, cells were stimulated with 1 µM FCCP [carbonyl cyanide 4-(trifluoromethoxy)phenylhydrazone] as a positive control 1 h prior to the measurement. For labeling, cells were washed twice with assay buffer ([…], 5.4 mM KCl, 2 mM MgCl2, 10 mM glucose, 2 mM CaCl2, 10 mM HEPES; pH 7.35) and 100 µL of a staining solution (50 nM TMRM,

In the case of `Cc1c(C)n(O)c2ccccc2c1=O` [compound 25, N-hydroxy-2,3-dimethyl-4(1H)-quinolone], the IC50 in test [1] was over 10 µg/mL; in [2] it was 2.7 ± 1.3 µg/mL (≈ 14.3 µM).

On to `CC(C)=CCC/C(C)=C/CC/C(C)=C/Cc1c(C)n(O)c2ccccc2c1=O` [aurachin C], for which, in the test with Plasmodium falciparum, the “IC50 Plasmodium falciparum” value is on record as “around 20 ng/mL” and the “fold higher antiplasmodial activity compared to aurachin D” value is “approximately 200 fold”.

Regarding `CC(C)=CCC/C(C)=C/CC/C(C)=C/CO` [farnesol], the IC50 in the test with Plasmodium is 64 µM.

Turning to `CC(C)=CCC/C(C)=C/CC/C(C)=C/Cc1c(C)n2c(=O)[nH]c3cccc(c1=O)c32` [aurachin E], the “IC50 Plasmodium falciparum” value in the test on Plasmodium falciparum is recorded as “around 20 ng/mL”.

`CC(C)=CCC/C(C)=C/CC/C(C)=C/Cc1c(O)c(C)[n+]([O-])c2ccccc12` [aurachin B]: in the test on Plasmodium falciparum, the “IC50 Plasmodium falciparum” value was “around 20 ng/mL”.

As for `Cc1cc(=O)c2ccccc2[nH]1` [compound 23, 2-methyl-4(1H)-quinolone, reference compound], the IC50 in [1] was over 10 µg/mL; in [2] it was 7.7 ± 2.5 µg/mL (≈ 48.4 µM).

For the compound `Cc1[nH]c2ccccc2c(=O)c1C` [compound 11], the IC50 in test [1] is over 10 µg/mL; in [3], over 10 µg/mL; in test [4], over 10 µg/mL; in [2], 2.3 ± 1.4 µg/mL (≈ 13.3 µM). The MIC50 (commonly the lowest concentration that inhibits either 50% of growth or 50% of the strains tested, depending on the study) in [5] was over 64 µg/mL; against Bacillus subtilis DSM10 it was 49 ± 6.26 µg/mL (≈ 283 µM); in test [6], over 64 µg/mL; in the test with Micrococcus luteus, over 64 µg/mL; in test [7], over 64 µg/mL; in the test on Escherichia coli (TolC), over 64 µg/mL. Also, the MIC50 in [8] was over 64 µg/mL.

Take `Cc1c2c(c3ccccc3[n+]1[O-])O[C@H]([C@](C)(O)CCC1OC1(C)C)C2` (stereo partly shown) [compound 22]: in test [9], the IC50 was over 50 µg/mL.

In the case of `Cc1[nH]c2ccccc2c(=O)c1Br` [compound 24, 3-bromo-2-methyl-4(1H)-quinolone], the figures for the IC50 in test [1] and in test [2] were 1.7 µg/mL (≈ 7.14 µM) and 1.1 µg/mL (≈ 4.62 µM), respectively.

For the compound `CC(C)=CCc1c(C)[nH]c2ccccc2c1=O` [compound 10], the IC50 was 5.8 µg/mL (≈ 25.5 µM) in test [1], over 10 µg/mL in [3], about 10 µg/mL (≈ 44 µM) in [4] and 0.55 ± 0.16 µg/mL (≈ 2.42 µM) in test [2]. In addition, the MIC50 is 11.3 ± 1.44 µg/mL (≈ 49.7 µM) in test [5]; 0.22 ± 0.06 µg/mL (≈ 0.968 µM) in the test with Bacillus subtilis DSM10; 9.66 ± 2.39 µg/mL (≈ 42.5 µM) in [6]; 14.3 ± 1.29 µg/mL (≈ 63 µM) against Micrococcus luteus; over 64 µg/mL in test [7]; 6.55 ± 1.36 µg/mL (≈ 28.8 µM) with Escherichia coli (TolC). For the same compound, in test [8], the MIC50 was over 64 µg/mL.

These data come from PMC3740496, “Synthesis and biological activities of the respiratory chain inhibitor aurachin D and new ring versus chain analogues” (Beilstein Journal of Organic Chemistry, 2013).
